Among the data in PMC11695631 (Nature Communications, 2025) are IC50 values, retold here.

This assay deals with Vesicular monoamine transporter 2 (VMAT2) (Homo sapiens, UniProt Q05940). Nature of the assay: cryo-EM structure at […] Å. It counts as cell-based.
Sequence of Vesicular monoamine transporter 2 (VMAT2) (Q05940 12-514): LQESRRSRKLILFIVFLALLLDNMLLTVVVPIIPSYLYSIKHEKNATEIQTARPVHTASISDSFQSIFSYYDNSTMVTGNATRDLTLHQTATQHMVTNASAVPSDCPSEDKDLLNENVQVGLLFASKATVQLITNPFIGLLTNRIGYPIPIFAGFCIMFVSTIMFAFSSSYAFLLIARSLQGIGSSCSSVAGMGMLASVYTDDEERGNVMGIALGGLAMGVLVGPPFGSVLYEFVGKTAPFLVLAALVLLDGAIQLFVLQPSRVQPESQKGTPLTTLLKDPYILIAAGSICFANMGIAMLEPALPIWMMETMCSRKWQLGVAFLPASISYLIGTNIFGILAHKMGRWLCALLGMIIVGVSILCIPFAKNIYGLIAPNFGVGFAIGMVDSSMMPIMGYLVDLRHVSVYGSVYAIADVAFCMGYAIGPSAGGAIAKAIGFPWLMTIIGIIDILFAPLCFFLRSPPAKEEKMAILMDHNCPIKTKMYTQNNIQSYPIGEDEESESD

`COc1cc2c(cc1OC)C1CC(=O)C(CC(C)C)CN1CC2` (stereo not shown) [TBZ, tetrabenazine] returned an IC50 of 20.4 ± 4.1 nM.

Usually IC50 stands for the point on the concentration scale where inhibition reaches its midpoint. Low values mean greater potency, high ones weaker potency.
